Experiment: Human HepG2 cell viability assay in 384 well format
Type: toxicity, cell-based
Design: dose 125 nL, time 70.5 hour; cytotoxicity at 70.5 h: concentration not given beside the values
Settings: HepG2 cells, read-out: Inhibition

SMILES | cytotoxicity at 70.5 h [%]
CN(C)C(=O)C1CCCN1CCCNC(=O)c1cccc2[nH]ncc12 (centres undefined) | 12.2
Cc1cc(C)n(CC2CCCN2C(=O)c2ccc3[nH]c(=O)[nH]c3c2)n1 (centres undefined) | -17.4
Cc1cc(C)n(CC2CCCN2C(=O)c2ccc3[nH]cnc3c2)n1 (centres undefined) | -9
CSCC(CCO)NC(=O)Nc1ccc(C)cc1C (centres undefined) | -14.5
CSCC(CCO)NC(=O)Nc1ccc(C)cc1Br (centres undefined) | 0.54
Cc1cn(-c2ccccc2)nc1NS(=O)(=O)c1cc(C(=O)O)sc1C | -18.9
Cc1cn(-c2ccccc2)nc1NS(=O)(=O)c1cc(C(=O)O)ccc1Cl | -9.13
O=C(CCc1ccncc1)N1CCCC(N2CCNC2=O)C1 (centres undefined) | -19.2
Cc1cc(CNCc2c(C(C)C)nn(C)c2N2CCOCC2)no1 | -6.34
Cc1ccc(CNCc2c(C(C)C)nn(C)c2N2CCOCC2)s1 | -19.6
Cc1nc(C)n(CC2CCCN2CC(=O)NCCC#N)n1 (centres undefined) | -19.9
CCOCCC1(C(=O)N2CCCC(c3ncc[nH]3)C2)CCCC1 (centres undefined) | -16.4
Cc1nc(C)n(CC2CCCN2CC(=O)NCCc2ccsc2)n1 (centres undefined) | 3.16
Cc1nc(C)n(CC2CCCN2CC(=O)NCCC2=CCCCC2)n1 (centres undefined) | -9.96
Cc1cc(C)n(CC2CCCN2C(=O)c2ccc3c(c2)COC3)n1 (centres undefined) | -13.3
Cc1nc(C)n(CC2CN(CCc3ccccc3Cl)CCO2)n1 (centres undefined) | 39.5
CC(C)n1cc(CN2CCCN(C(=O)c3ccoc3)CC2)cn1 | 27.6
Cc1ccc(OCCCC(=O)NC(C)c2ccc(S(N)(=O)=O)cc2)cc1 (centres undefined) | 34.1
Cc1ccc(NC(C)C(=O)NCc2cccs2)cc1Cl (centres undefined) | 5.9
Cc1ccc(S(N)(=O)=O)cc1C(=O)NCC1Cc2ccccc2O1 (centres undefined) | -3.82

SMILES | cytotoxicity at 70.5 h [%]
CS(=O)(=O)Cc1ccc(C(=O)NCC2Cc3ccccc3O2)cc1 (centres undefined) | -0.3
Cc1nccn1-c1cc(CNC(=O)N2CCSCC2)ccn1 | -3.48
Cc1nccn1-c1cc(CNC(=O)CCNC(=O)OC(C)(C)C)ccn1 | -7.58
CS(=O)(=O)c1cccc(C(=O)NCC2Cc3ccccc3O2)c1 (centres undefined) | -5.79
Cc1cc(C)c(S(N)(=O)=O)cc1C(=O)NCC1Cc2ccccc2O1 (centres undefined) | -5.64
CC(Oc1ccccc1C(F)(F)F)C(=O)NCC(=O)N1CCCC1 (centres undefined) | -6.07
COC(=O)CNC(=O)C(C)Oc1ccccc1C(F)(F)F (centres undefined) | -3.31
Cc1cc(C(=O)N2CCCN(Cc3cnn(C(C)C)c3)CC2)no1 | -3
COc1ccsc1C(=O)N1CCCC1c1c(C)nn(C)c1OC (centres undefined) | -4.7
O=C1CC(Cc2ccc(NC(=O)c3cccc(F)c3)cc2)C(=O)N1 (centres undefined) | -3.69
CC1CN(C)c2ccccc2CN1C(=O)c1ccoc1 (centres undefined) | 10
Cc1ccoc1C(=O)NCCOc1ncc(Cl)cc1Cl | -4.36
CC1CN(C)c2ccccc2CN1C(=O)c1cc[nH]c(=O)c1 (centres undefined) | -0.482
Cc1cc(C)n(CC2CN(CCc3ccncc3)CCO2)n1 (centres undefined) | -2.71
CC(C)n1cc(CN2CCCN(C(=O)c3ccnn3C)CC2)cn1 | -2.89
COCCOCCNC(=O)C(C)Oc1ccccc1C(F)(F)F (centres undefined) | -5.94
COC(=O)C(O)C1CCN(Cc2cccc(-n3cccn3)c2)CC1 (centres undefined) | -1.06
O=C(c1cncc(Br)c1)N1CCCc2ccc(F)cc21 | -5.54
Cc1cccc(N(CCC(N)=O)CC(=O)Nc2ccccc2)c1 | 0.933
COCc1cccc(NC(=O)NCc2ncc(C)c(OC)c2C)c1 | 0.253

SMILES | cytotoxicity at 70.5 h [%]
Cc1cc(NC(=O)CSc2nc(=O)ccn2C(C)C)no1 | -0.711
O=C1C(NCc2ccccc2O)CCN1Cc1ccccc1 (centres undefined) | 18.3
O=C(c1cc[nH]n1)N(Cc1ccc(F)cc1)CC1CC1 | 0.0679
COCCNc1ccc(CNC(=O)C2COc3ccccc32)cc1 (centres undefined) | 19.2
Cc1nccc(CNC(=O)NCC(C)Oc2ccccc2F)n1 (centres undefined) | 10.9
CNC(=O)c1ccc(Cn2ccnc2S(C)(=O)=O)cc1 | -0.546
CCn1ccnc1S(=O)(=O)Cc1ccc(C(N)=O)cc1 | -2.48
CS(=O)(=O)c1nccn1Cc1ccc(Cl)cc1 | -5.04
CCS(=O)(=O)CC(=O)Nc1cccc2c1CN(CC(C)C)C2 | -0.0392
CN(C(=O)CCNC(=O)C1COc2ccccc21)c1ccccc1 (centres undefined) | -6.34
Cc1cc(C)n(CC(=O)NC2CCCCNC2=O)n1 (centres undefined) | -6.78
Cc1ccc(S(=O)(=O)NC(=O)CCOCC(C)C)s1 | 8.21
CCC(Nc1nnnn1-c1ccccc1)C(=O)Nc1nc(C)cs1 (centres undefined) | -12.4
CCC(Nc1nnnn1-c1ccccc1)C(=O)NCc1ccsc1 (centres undefined) | -12.5
CC(=O)N1CCN(C(=O)CNc2cccc(OC(F)F)c2C)CC1 | -1.78
Cc1noc(C)c1CN(C)C(=O)COc1cccc(C#N)c1 | -10.8
CCC1CN(C(=O)c2csc(-c3cnn(C)c3)n2)CCO1 (centres undefined) | -10.2
COCCCN(C)S(=O)(=O)c1ccc(C(F)(F)F)cc1C#N | -10.6
O=C1C(NCc2ccc3c(c2)CCO3)CCN1Cc1ccccc1 (centres undefined) | -14.7
